The text below walks through data of a melting point compilation (Tetko et al.).

For the data set the following is noted: a range is the spread between reports.
Turning to `OC1CCc2ccccc21` (centres undefined), the melting point lay within 52 to 54.8 °C.
In turn, `CC[Si](CC)(CC)CC` returned a melting point of -82.5 to -82 °C.
In turn, `O=C(O)c1cccc([N+](=O)[O-])c1Cl` had a melting point of 181 to 184 °C.
Then `C1CCCC1`, with -94 to -93.8 °C.
Then `FC(F)(F)C(F)(F)C(F)(F)C(F)(F)C(F)(F)C(F)(F)C(F)(F)C(F)(F)F`, with -25 to -23.2 °C; and `Ic1cccc(I)c1`, with 36 to 40.4 °C.
Then `N#Cc1cccc(C#N)c1`, with 161 to 162 °C; and `COc1cc(CC(=O)O)ccc1O`, with 143 to 144 °C.
Compound `OC1C2CCC(C2)C1O` (centres undefined) displayed a melting point of 139 to 141 °C.
In turn, `CC(=O)c1cccc(C#N)c1` had a melting point of 98 to 99 °C.
As for `CC(=O)Nc1cccc(F)c1`, the melting point lay within 83 to 88 °C.
In turn, `NCC1CCNCC1` had a melting point of 24 to 25 °C.
In the case of `Fc1cc(F)cc(F)c1`, the melting point is -6 to -5.5 °C.
The compound `COc1ccccc1Br` showed a melting point of 2 to 3 °C.
Compound `Cc1nc(-c2ccc(-c3nc(C)c(-c4ccccc4)o3)cc2)oc1-c1ccccc1` had a melting point of 232 to 234 °C.
Then `O=C(O)c1cccc(Cl)c1Cl`, with 168 to 169 °C.
Then `CS(C)=O`, with 18 to 18.5 °C; and `CCOC(=O)c1ccc(N)cc1`, with 88 to 92 °C.
Then `CC(C)(c1ccc(O)cc1)c1ccc(O)cc1`, with 153 to 156 °C.
`Cc1ccc(S(=O)(=O)c2ccc(C)cc2)cc1` registered a melting point of 157 to 159 °C.
In turn, `O=C(c1ccccc1)c1c(F)c(F)c(F)c(F)c1F` showed a melting point of 37 to 38 °C.
As for `COC1=C(OC)C(=O)C(C)=CC1=O`, the melting point fell in the range of 58.5 to 59.5 °C.
For the compound `O=[N+]([O-])c1cc([N+](=O)[O-])c(F)cc1F`, the melting point was in the range of 73 to 74 °C.
On to `FC(F)(F)c1ccc(Cl)nc1`, for which the melting point is 31 to 33 °C.
Consider `Nc1c(Cl)ccc(Cl)c1C(=O)O`, for which the melting point was in the range of 152 to 155 °C.
Then `CCCCCCCCC(=O)O`, with 10 to 12.3 °C; and `O=C1c2c(O)cccc2Cc2cccc(O)c21`, with 179 to 181 °C; and `CCCSCCC`, with -103 to -102 °C.
`O=C=Nc1ccc(Cl)c(Cl)c1` had a melting point of 42 to 43 °C.
`O=Cc1ccccc1Cl` registered a melting point of 9 to 12.4 °C.
Then `COc1cccc(OC)c1O`, with 54 to 56.5 °C.
Take `O=C(O)Cc1c(Cl)cccc1Cl`: the melting point is 159 to 160 °C.
`CN(C)c1ccc(N(C)C)cc1`: the melting point fell in the range of 50 to 51 °C.
Then `Cc1ccccc1NC(=N)Nc1ccccc1C`, with 177 to 179 °C; and `COc1ccc(N=C=S)cc1`, with 18 to 19 °C.
Take `O=c1c2ccccc2sc2ccccc12`: the melting point fell in the range of 209 to 212 °C.
Then `Cc1ncc[nH]1`, with 143 to 144 °C; and `c1ccc2c(c1)CCc1ccccc1-2`, with 34 to 34.5 °C.
Then `N[C@@H](Cc1c[nH]cn1)C(=O)O`, with 282 to 287 °C; and `Cc1cccc(C)c1O`, with 45.7 to 49 °C; and `CC(C)CC(C)C(C)C` (centres undefined), with -128 °C.
Turning to `CI`, the melting point was -67 to -64 °C.
Then `O=Cc1cccc(O)c1`, with 104 to 108 °C; and `CCCCCCCCCCCCCCCCS`, with 19 to 21 °C; and `Cc1ccc(C)c(N)c1`, with 12 to 15.5 °C.
On to `CC(C)c1cc(C(C)C)cc(C(C)C)c1`, for which the melting point is -7.4 to -7 °C.
The compound `CC(C)C(C)C` showed a melting point of -129 to -128 °C.
In the case of `COC(=O)c1cccc(Br)c1`, the melting point is 32 to 33 °C.
Then `C/C=C/c1ccccc1`, with -29.3 to -27.1 °C; and `CCc1ccccc1Br`, with -68 to -67.9 °C.
Then `C1CCNCC1`, with -11 to -7 °C; and `Clc1ccccc1C(Cl)(Cl)Cl`, with 29 to 30 °C; and `O=C=Nc1cccc(N=C=O)c1`, with 48 to 50 °C.
Then `O=C(c1ccccc1)c1cccc(Br)c1`, with 76 to 81 °C.
